Measured values reported in patent US20060069132A1, “Azolecarboxamide herbicides” (priority 2004, published 2006).

Legend:
[1] = tested on: small flower umbrella sedge; assay: Test B flooded paddy test; assay type: in vivo, Cyperus difformis; details: 1000 g ai/ha, visual rating, scale 0 to 100 (0 no effect, 100 complete control), 13 to 15 days
Procedure, shortened: (§1)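 Treated at 2-leaf (paddy) or 1–4-leaf, 2–18 cm (postemergence); greenhouse 13–15 d; visual score vs control, 0 none to 100 complete control; dash = not tested.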

[2] = tested on: velvetleaf; assay: Test B pre-/postemergence herbicide test; assay type: in vivo, Abutilon theophrasti; details: for Plant response rating, Velvetleaf: preemergence; for Velvetleaf plant response rating: postemergence, visual rating, scale 0 (no effect) to 100 (complete control)
Procedure, shortened: (§2)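 Flooded paddy rice and barnyardgrass were treated at the 2-leaf stage; upland plantings received compound either on sown seed or on 1- to 4-leaf seedlings. All were kept 13–15 days in a greenhouse and scored visually, 0–100, relative to untreated plants.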

[3] = tested on: rice; assay: Test B flooded paddy test; assay type: in vivo, Oryza sativa; details: 1000 g ai/ha, visual rating, scale 0 to 100 (0 no effect, 100 complete control), 13 to 15 days
Procedure, shortened: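 After treating 2-leaf paddy plants or 2–18 cm postemergence plants (1 to 4 leaves) with formulated chemical, researchers kept them in a greenhouse for 13–15 days. Effects were judged visually versus controls: 0 indicates none, 100 total control.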

[4] = tested on: wild oat; assay: Test B postemergence herbicide test; assay type: in vivo, Avena fatua; details: postemergence, visual rating, scale 0 (no effect) to 100 (complete control)
Procedure, shortened: as §1

[5] = tested on: giant foxtail; assay: Test B pre-/postemergence herbicide test; assay type: in vivo, Setaria faberi; details: for Plant response rating, Foxtail, Giant: preemergence; for Foxtail, Giant plant response rating: postemergence, visual rating, scale 0 (no effect) to 100 (complete control)
Procedure, shortened: as §2

[6] = tested on: morningglory; assay: Test B pre-/postemergence herbicide test; assay type: in vivo, Ipomoea coccinea; details: for Plant response rating, Morningglory: preemergence; for Morningglory plant response rating: postemergence, visual rating, scale 0 (no effect) to 100 (complete control)
Procedure, shortened: (§3)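 Herbicidal effect was judged by eye on a 0–100 scale after plants stood 13 to 15 days in the greenhouse following pre- or postemergence treatment with surfactant-containing formulations.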

[7] = tested on: Surinam grass; assay: Test B pre-/postemergence herbicide test; assay type: in vivo, Urochloa decumbens; details: for Plant response rating, Surinam Grass: preemergence; for Surinam Grass plant response rating: postemergence, visual rating, scale 0 (no effect) to 100 (complete control)
Procedure, shortened: as §2

[8] = tested on: pigweed; assay: Test B pre-/postemergence herbicide test; assay type: in vivo, Amaranthus retroflexus; details: for Plant response rating, Pigweed: preemergence; for Pigweed plant response rating: postemergence, visual rating, scale 0 (no effect) to 100 (complete control)
Procedure, shortened: as §2

[9] = tested on: lambsquarters; assay: Test B pre-/postemergence herbicide test; assay type: in vivo, Chenopodium album; details: for Plant response rating, Lambsquarters: preemergence; for Lambsquarters plant response rating: postemergence, visual rating, scale 0 (no effect) to 100 (complete control)
Procedure, shortened: as §2

[10] = tested on: barnyardgrass; assay: Test B pre-/postemergence herbicide test; assay type: in vivo, Echinochloa crus-galli; details: for Plant response rating, Barnyardgrass: preemergence; for Barnyardgrass plant response rating: postemergence, visual rating, scale 0 (no effect) to 100 (complete control)
Procedure, shortened: as §3

[11] = tested on: wheat; assay: Test B postemergence herbicide test; assay type: in vivo, Triticum aestivum; design: key to Wheat plant response rating: 0 = no effect, 100 = complete control; details: postemergence, visual rating, scale 0 (no effect) to 100 (complete control)
Procedure, shortened: as §1

[12] = tested on: cocklebur; assay: Test B pre-/postemergence herbicide test; assay type: in vivo, Xanthium strumarium; details: for Plant response rating, Cocklebur: preemergence; for Cocklebur plant response rating: postemergence, visual rating, scale 0 (no effect) to 100 (complete control)
Procedure, shortened: as §3

[13] = tested on: large crabgrass; assay: Test B pre-/postemergence herbicide test; assay type: in vivo, Digitaria sanguinalis; details: for Plant response rating, Crabgrass, Large: preemergence; for Crabgrass, Large plant response rating: postemergence, visual rating, scale 0 (no effect) to 100 (complete control)
Procedure, shortened: as §2

[14] = tested on: barnyardgrass; assay: Test B flooded paddy test; assay type: in vivo, Echinochloa crus-galli; details: 1000 g ai/ha, visual rating, scale 0 to 100 (0 no effect, 100 complete control), 13 to 15 days
Procedure, shortened: as §1

[15] = tested on: corn; assay: Test B pre-/postemergence herbicide test; assay type: in vivo, Zea mays; details: for Plant response rating, Corn: preemergence; for Corn plant response rating: postemergence, visual rating, scale 0 (no effect) to 100 (complete control)
Procedure, shortened: as §2

[16] = 500 g ai/ha, visual rating 0-100, 0 no effect, 100 complete control
[17] = 125 g ai/ha, 0 to 100 scale, 0 is no effect, 100 is complete control

CCn1nc(C(C)(C)C)cc1C(=O)Nc1cccc(SC)c1 [Compound 131]
70: Plant response rating, Foxtail, Giant [5, 16] | Plant response rating, Barnyardgrass [10, 17] | Cocklebur plant response rating ([12]; 125 g ai/ha) | Barnyardgrass plant response rating [14]
20: Oat, Wild plant response rating ([4]; 125 g ai/ha) | Oat, Wild plant response rating ([4]; 500 g ai/ha) | Foxtail, Giant plant response rating ([5]; 125 g ai/ha) | Morningglory plant response rating ([6]; 125 g ai/ha) | Surinam Grass plant response rating ([7]; 125 g ai/ha) | Wheat plant response rating ([11]; 500 g ai/ha) | Crabgrass, Large plant response rating ([13]; 125 g ai/ha) | Corn plant response rating ([15]; 125 g ai/ha) | Corn plant response rating ([15]; 500 g ai/ha)
60: Rice plant response rating [3] | Morningglory plant response rating ([6]; 500 g ai/ha) | Plant response rating, Surinam Grass [7, 16] | Surinam Grass plant response rating ([7]; 500 g ai/ha) | Pigweed plant response rating ([8]; 500 g ai/ha)
40: Velvetleaf plant response rating ([2]; 500 g ai/ha)
90: Lambsquarters plant response rating ([9]; 500 g ai/ha) | Plant response rating, Barnyardgrass [10, 16]
100: Plant response rating, Velvetleaf [2, 16] | Plant response rating, Pigweed [8, 16] | Plant response rating, Pigweed [8, 17] | Plant response rating, Lambsquarters [9, 16] | Plant response rating, Lambsquarters [9, 17] | Cocklebur plant response rating ([12]; 500 g ai/ha) | Plant response rating, Crabgrass, Large [13, 16]
50: Plant response rating, Velvetleaf [2, 17] | Barnyardgrass plant response rating ([10]; 500 g ai/ha) | Plant response rating, Crabgrass, Large [13, 17]
0: Plant response rating, Cocklebur [12, 17] | Plant response rating, Corn [15, 16] | Plant response rating, Corn [15, 17]
30: Foxtail, Giant plant response rating ([5]; 500 g ai/ha) | Plant response rating, Morningglory [6, 16] | Pigweed plant response rating ([8]; 125 g ai/ha) | Crabgrass, Large plant response rating ([13]; 500 g ai/ha)
10: Velvetleaf plant response rating ([2]; 125 g ai/ha) | Plant response rating, Foxtail, Giant [5, 17] | Plant response rating, Morningglory [6, 17] | Plant response rating, Surinam Grass [7, 17] | Barnyardgrass plant response rating ([10]; 125 g ai/ha) | Wheat plant response rating ([11]; 125 g ai/ha) | Plant response rating, Cocklebur [12, 16]
80: Sedge, Umbrella plant response rating [1] | Lambsquarters plant response rating ([9]; 125 g ai/ha)
